Measured values: patent publication US10214533B2, “N-acyl-(3-substituted)-5,6,7,8-tetrahydro-[1,2,4]triazolo[4,3-a]pyrazines as selective NK-3 receptor antagonists, pharmaceutical composition, methods for use in NK-3 receptor-mediated disorders” (OGEDA SA, priority 2013, dated 2019)

test system: plasma protein; experiment: Determination of plasma protein binding (rapid equilibrium dialysis); type: in vitro ADME; details: 4 hours at 37° C.
Protocol: The determination of plasma protein binding (PPB) of a compound is enabled by equilibrium dialysis, an accepted and standard method for reliable estimation of the non-bound drug fraction in plasma. RED (Rapid Equilibrium Dialysis) device insert is made of two side-by-side chambers separated by an O-ring-sealed vertical cylinder of dialysis membrane (MWCO ˜8,000). […] After 4 hours incubation at 37° C. under shaking, an aliquot is removed from each chamber and analyzed by a LC-MS/MS procedure enables the determination of both free and bound drug.
The “free fraction” may be calculated as 100%−% rPPB (i.e. the complementary percentage of that disclosed in Table 4, corresponding to the drug concentration that is unbound and therefore available to engage biological target and elicit pharmacological activity).

First: Cc1nsc(-c2nnc3n2CCN(C(=O)c2ccc(F)c(Cl)c2)C3)n1 [Compound 4, (3-chloro-4-fluorophenyl)(3-(3-methyl-1,2,4-thiadiazol-5-yl)-5,6-dihydro-[1,2,4]triazolo[4,3-a]pyrazin-7(8H)-yl)methanone]
Second: Cc1nsc(-c2nnc3n2CCN(C(=O)c2ccc(Cl)c(F)c2)C3)n1 [Compound 3, (4-chloro-3-fluorophenyl)(3-(3-methyl-1,2,4-thiadiazol-5-yl)-5,6-dihydro-[1,2,4]triazolo[4,3-a]pyrazin-7(8H)-yl)methanone]
The “Exposure (% rPPB), bound drug fraction to the plasma protein” value (“Exposure (% rPPB), bound drug fraction” for short) of the first is lower: 52% for the first, 54% for the second.

First: Cc1nsc(-c2nnc3n2CCN(C(=O)c2ccc(F)c(F)c2F)C3)n1 [Compound 7, (3-(3-methyl-1,2,4-thiadiazol-5-yl)-5,6-dihydro-[1,2,4]triazolo[4,3-a]pyrazin-7(8H)-yl)(2,3,4-trifluorophenyl)methanone]
Second: Cc1nsc(-c2nnc3n2CCN(C(=O)c2cc(F)c(F)c(F)c2)C3)n1 [Compound 6, (3-(3-methyl-1,2,4-thiadiazol-5-yl)-5,6-dihydro-[1,2,4]triazolo[4,3-a]pyrazin-7(8H)-yl)(3,4,5-trifluorophenyl)methanone]
The “Exposure (% rPPB), bound drug fraction” value of the first is lower: 25% for the first, 27% for the second.

Going from `Cc1nsc(-c2nnc3n2CCN(C(=O)c2ccc(Cl)cc2)C3)n1` [Compound 2, (4-chlorophenyl)(3-(3-methyl-1,2,4-thiadiazol-5-yl)-5,6-dihydro-[1,2,4]triazolo[4,3-a]pyrazin-7(8H)-yl)methanone] to `Cc1nsc(-c2nnc3n2CCN(C(=O)c2ccc(F)c(F)c2)C3)n1` [Compound 5, (3,4-difluorophenyl)(3-(3-methyl-1,2,4-thiadiazol-5-yl)-5,6-dihydro-[1,2,4]triazolo[4,3-a]pyrazin-7(8H)-yl)methanone], the “Exposure (% rPPB), bound drug fraction” value falls from 49% to 28%.

test system: circulating LH levels; experiment: Castrated male rat model, circulating luteinizing hormone (LH) levels, oral dosing; type: in vivo; details: castrated male SD rat, single oral dose less than or equal to 30 mg/kg, p<0.05
Protocol: The effect of compounds of the invention to inhibit luteinizing hormone (LH) secretion is determined by the following biological studies. In humans and rodents, castration is well-precedented to permit heightened, persistent GnRH signaling and consequent elevation of circulating LH. Thus, a castrated rat model is used to provide a broad index for measurement of LH inhibition as a marker of test compound inhibition of the GnRH signaling pathway. Castrated adult male Sprague-Dawley (SD) rats (150-175 g) were purchased from Janvier (St Berthevin, France). All animals were housed 2 per cage in a temperature-controlled room (22±2° C.) and 50±5% relative humidity with a 12 hour/12 hour light/dark cycles (lights off at 6 h00 pm). The animals were allowed 3 weeks of postoperative recovery prior to study. Animals were handled on a daily basis. Standard diet and tap water were provided ad libitum. Animal cage litters were changed once a week. On the study day, animals were acclimated to the procedure room for a period of one hour prior to the initiation of the experiment. Compounds of the invention were formulated in 0.5% methyl cellulose. After basal sampling (TO) a single dose of compounds of the invention or vehicle was administrated orally to rats. […] Serum LH levels were determined using radioimmunoassay kit from RIAZEN—Rat LH, Zentech (Liège, Belgium). […]

For `Cc1nsc(-c2nnc3n2CCN(C(=O)c2ccc(F)cc2)C3)n1` [Compound 1, (4-fluorophenyl)(3-(3-methyl-1,2,4-thiadiazol-5-yl)-5,6-dihydro-[1,2,4]triazolo[4,3-a]pyrazin-7(8H)-yl)methanone], the “Suppression of circulating LH levels” value was “significantly suppressed circulating LH levels”.
